Molecules are shown by their SMILES. Like-named read-outs stand apart in the source and are kept apart here.

The results in this text go back to patent US9321756B2, “Azole compounds as PIM inhibitors” (priority 2011, dated 2016).

Format in all cases: biochemical
Experiment [1] concerns the target full length recombinant Pim-2 (Homo sapiens (Human), UniProt Q9P1W9). In words: Pim enzyme assay (HTRF, phosphorylation of biotinylated-BAD (S112) peptide), Pim-2. The note with it: read-out: Pim2_IC50. A general note: In TR-FRET formats the signal depends on donor and acceptor labels being close together.
For experiment [2], the target named is full length recombinant Pim-3 (Homo sapiens (Human), UniProt Q86V86). In words: Pim enzyme assay (HTRF, phosphorylation of biotinylated-BAD (S112) peptide), Pim-3. The note with it: read-out: Pim3 IC50. The text has this: Pim-3 was purchased from Millipore (UK).
The phosphorylation of biotinylated-BAD (S112) peptide by full length recombinant Pim-1, Pim-2, or Pim-3 protein was detected with streptavidin:Allophycocyanin (APC) conjugate and a europium (Eu) labeled antibody directed against phosphorylated-BAD (S112). […] The fluorescence is directly proportional to the amount of phosphorylated BAD peptide present in the reaction.
A reference compound was included on each assay plate in order to validate that plate; on one plate of every assay run, two additional reference compounds were included.
The final buffer conditions were as follows: 60 mM Hepes, pH 7.0, 0.05% BSA, 2 mM DTT. Incubations were carried out at RT (22° C.) for 2 h for Pim-1, 1 h and 30 min for Pim-3, and 45 min for Pim-2. The reaction was then stopped by the addition of 3 mM EDTA, and fluorescence was measured by an HTRF® Rubystar microplate reader. For each plate, percent of control (POC) values were calculated for each well. Values for the IC50 IP were estimated using a standard 4-parameter logistic model.

The target in experiment [3] is full length recombinant Pim-1 (Homo sapiens (Human), UniProt P11309). The experiment is described as follows: Pim enzyme assay (HTRF, phosphorylation of biotinylated-BAD (S112) peptide), Pim-1. Particulars: Pim-1 enzyme assay; read-out: Pim_1_IC50.
Sequence of full length recombinant Pim-1 (P11309 whole entry): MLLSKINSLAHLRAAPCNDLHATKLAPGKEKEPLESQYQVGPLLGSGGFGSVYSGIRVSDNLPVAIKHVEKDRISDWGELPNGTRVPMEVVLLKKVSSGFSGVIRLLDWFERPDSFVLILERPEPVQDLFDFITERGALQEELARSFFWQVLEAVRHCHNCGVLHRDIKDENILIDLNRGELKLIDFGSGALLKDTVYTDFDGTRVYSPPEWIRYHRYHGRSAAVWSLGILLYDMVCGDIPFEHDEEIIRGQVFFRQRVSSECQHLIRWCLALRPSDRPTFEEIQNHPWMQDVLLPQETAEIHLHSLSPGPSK

Sequence of full length recombinant Pim-2 (Q9P1W9 whole entry): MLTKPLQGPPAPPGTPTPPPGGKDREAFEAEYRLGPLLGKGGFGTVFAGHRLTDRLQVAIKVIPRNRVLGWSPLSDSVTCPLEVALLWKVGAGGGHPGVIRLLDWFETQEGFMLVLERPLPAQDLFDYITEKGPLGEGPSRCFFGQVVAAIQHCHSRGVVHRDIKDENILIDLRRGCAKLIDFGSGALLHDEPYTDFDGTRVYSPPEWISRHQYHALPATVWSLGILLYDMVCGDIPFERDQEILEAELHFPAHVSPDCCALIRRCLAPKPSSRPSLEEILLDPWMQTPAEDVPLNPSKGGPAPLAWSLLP

With `CNc1nnc(-c2ccc3[nH]cc(-c4cccc(F)n4)c3c2)s1` [Example 239, 5-(3-(6-fluoro-2-pyridinyl)-1H-indol-5-yl)-N-methyl-1,3,4-thiadiazol-2-amine], the IC50 in experiment [1] (Pim-2 enzyme assay) came to 739 nM; in experiment [2] (Pim-3 enzyme assay), 170 nM; in experiment [3] it was 1030 nM.
On the same counts, the results for `Nc1nnc(-c2ccc3[nH]cc(-c4cccc(C(F)(F)F)n4)c3c2)s1` [Example 182, 5-(3-(6-(trifluoromethyl)-2-pyridinyl)-1H-indol-5-yl)-1,3,4-thiadiazol-2-amine] are 135 nM, 22.5 nM and 121 nM.
On the same counts, the results for `CNc1nnc(-c2ccc3[nH]cc(-c4cn[nH]c4)c3c2)s1` [Example 218, N-methyl-5-(3-(1H-pyrazol-4-yl)-1H-indol-5-yl)-1,3,4-thiadiazol-2-amine] are 623 nM, 123 nM and 241 nM.
For `Nc1nnc(-c2ccc3[nH]cc(-c4c(F)cccc4F)c3c2)s1` [Example 138, 5-(3-(2,6-difluorophenyl)-1H-indol-5-yl)-1,3,4-thiadiazol-2-amine], the IC50 in experiment [1] (Pim-2 enzyme assay) was determined as 348 nM; in experiment [2] (Pim-3 enzyme assay), 96.7 nM; in experiment [3], 199 nM.
Turning to `Nc1nnc(-c2ccc3[nH]cc(-c4ncccn4)c3c2)o1` [Example 93, 5-(3-(2-pyrimidinyl)-1H-indol-5-yl)-1,3,4-oxadiazol-2-amine], the IC50 in experiment [1] (Pim-2 enzyme assay) stood at 111 nM; in experiment [2] (Pim-3 enzyme assay) it was 140 nM; in experiment [3] it was 269 nM.
Take `CC(Nc1nnc(-c2ccc3[nH]cc(-c4cnccn4)c3c2)o1)c1ccccc1` (stereo not drawn) [Example 268, N-(1-phenylethyl)-5-(3-(2-pyrazinyl)-1H-indol-5-yl)-1,3,4-oxadiazol-2-amine]: the IC50 came to 559 nM in experiment [1] (Pim-2 enzyme assay), 81.2 nM in experiment [2] (Pim-3 enzyme assay) and 171 nM in experiment [3].
Turning to `CCOc1cnc(-c2c[nH]c3ccc(-c4nnc(N)o4)cc23)cn1` [Example 86, 5-(3-(5-ethoxy-2-pyrazinyl)-1H-indol-5-yl)-1,3,4-oxadiazol-2-amine], the IC50 in experiment [1] (Pim-2 enzyme assay) was determined as 324 nM; in experiment [2] (Pim-3 enzyme assay) it was 122 nM; in experiment [3], 279 nM.
Consider `Nc1nnc(-c2ccc3[nH]cc(-c4cnc(N5CCCC5=O)cn4)c3c2)s1` [Example 194, 1-(5-(5-(5-amino-1,3,4-thiadiazol-2-yl)-1H-indol-3-yl)-2-pyrazinyl)-2-pyrrolidinone], for which the IC50 is 1040 nM in experiment [1] (Pim-2 enzyme assay), 509 nM in experiment [2] (Pim-3 enzyme assay) and 945 nM in experiment [3].
Turning to `N#Cc1cccc(-c2c[nH]c3ccc(-c4nnc(N)s4)cc23)n1` [Example 183, 6-(5-(5-amino-1,3,4-thiadiazol-2-yl)-1H-indol-3-yl)-2-pyridinecarbonitrile], the IC50 in experiment [1] (Pim-2 enzyme assay) stood at 174 nM; in experiment [2] (Pim-3 enzyme assay) it was 48.2 nM; in experiment [3], 156 nM.
On to `O=c1[nH]nc(-c2ccc3[nH]cc(-c4cncc(C5CC5)n4)c3c2)o1` [Example 38, 5-(3-(6-Cyclopropylpyrazin-2-yl)-1H-indol-5-yl)-1,3,4-oxadiazol-2(3H)-one 2,2,2-trifluoroacetate], for which the IC50 stood at 54.5 nM in experiment [1], 37.7 nM in experiment [2] and 65.5 nM in experiment [3].
Regarding `CNc1nnc(-c2ccc3[nH]cc(-c4cccc(-n5ccnc5C)n4)c3c2)s1` [Example 234, N-methyl-5-(3-(6-(2-methyl-1H-imidazol-1-yl)-2-pyridinyl)-1H-indol-5-yl)-1,3,4-thiadiazol-2-amine], the IC50 in experiment [1] (Pim-2 enzyme assay) is 123 nM; in experiment [2] (Pim-3 enzyme assay) it was 18.5 nM; in experiment [3] it was 108 nM.
Turning to `Nc1nnc(-c2ccc3[nH]cc(-c4ccccc4F)c3c2)o1` [Example 84, 5-(3-(2-fluorophenyl)-1H-indol-5-yl)-1,3,4-oxadiazol-2-amine], the values for the IC50 in experiment [1] (Pim-2 enzyme assay), in experiment [2] (Pim-3 enzyme assay) and in experiment [3] were 140 nM, 26 nM and 92.6 nM, respectively.
Take `Nc1cncc(-c2c[nH]c3ccc(-c4nnc(N)s4)cc23)n1` [Example 210, 6-(5-(5-amino-1,3,4-thiadiazol-2-yl)-1H-indol-3-yl)-2-pyrazinamine]: the IC50 in experiment [1] (Pim-2 enzyme assay) turned out to be 192 nM; in experiment [2] (Pim-3 enzyme assay), 28.7 nM; in experiment [3] it was 142 nM.
Consider `COc1cncc(-c2c[nH]c3ccc(-c4nnc(N)s4)cc23)c1` [Example 199, 5-(3-(5-methoxy-3-pyridinyl)-1H-indol-5-yl)-1,3,4-thiadiazol-2-amine], for which the IC50 worked out at 618 nM in experiment [1] (Pim-2 enzyme assay), 165 nM in experiment [2] (Pim-3 enzyme assay) and 268 nM in experiment [3].
Regarding `COCC(=O)Nc1cccc(CNc2nnc(-c3ccc4[nH]cc(-c5ccccc5F)c4c3)s2)c1` [Example 146, N-(3-(((5-(3-(2-fluorophenyl)-1H-indol-5-yl)-1,3,4-thiadiazol-2-yl)amino)methyl)phenyl)-2-methoxyacetamide], the IC50 was determined as 2510 nM in experiment [1] (Pim-2 enzyme assay), 540 nM in experiment [2] (Pim-3 enzyme assay) and 365 nM in experiment [3].
For `Cc1nc(-c2c[nH]c3ccc(-c4nnc(N)s4)cc23)ccc1F` [Example 191, 5-(3-(5-fluoro-6-methyl-2-pyridinyl)-1H-indol-5-yl)-1,3,4-thiadiazol-2-amine], the IC50 in experiment [2] (Pim-3 enzyme assay) amounted to 144 nM.
With `CC(C)Oc1cccc(-c2c[nH]c3ccc(-c4noc(N)n4)cc23)n1` [Example 69, 3-(3-(6-isopropoxypyridin-2-yl)-1H-indol-5-yl)-1,2,4-oxadiazol-5-amine], the IC50 in experiment [1] (Pim-2 enzyme assay) was found to be 668 nM; in experiment [3], 241 nM.
As for `CC(C)Nc1nnc(-c2ccc3[nH]cc(-c4nccc(OC5CCCN(C)C5)n4)c3c2)o1` (stereo not drawn) [Example 62, N-isopropyl-5-(3-(4-((1-methylpiperidin-3-yl)oxy)pyrimidin-2-yl)-1H-indol-5-yl)-1,3,4-oxadiazol-2-amine 2,2,2-trifluoroacetate], the results for the IC50 in experiment [1] and in experiment [3] were 207 nM and 69.5 nM, respectively.
In the case of `CC(C)Oc1cccc(-c2c[nH]c3ccc(-c4nc(N)ns4)cc23)n1` [Example 63, 5-(3-(6-isopropoxypyridin-2-yl)-1H-indol-5-yl)-1,2,4-thiadiazol-3-amine], the IC50 was determined as 400 nM in experiment [1] (Pim-2 enzyme assay) and 551 nM in experiment [3].
As to `c1ccc(Nc2nnc(-c3ccc4[nH]cc(-c5cncc(C6CC6)n5)c4c3)o2)cc1` [Example 40, 5-(3-(6-Cyclopropylpyrazin-2-yl)-1H-indol-5-yl)-N-phenyl-1,3,4-oxadiazol-2-amine], the results for the IC50 in experiment [1] (Pim-2 enzyme assay) and in experiment [3] were 215 nM and 105 nM, respectively.
On the same counts, the results for `CNc1nnc(-c2ccc3[nH]cc(-c4ccccc4)c3c2)s1` [Example 223, N-methyl-5-(3-phenyl-1H-indol-5-yl)-1,3,4-thiadiazol-2-amine] are 1950 nM and 1140 nM.
On to `CC(C)(C)Nc1nnc(-c2ccc3[nH]cc(-c4nccc(C5CC5)n4)c3c2)o1` [Example 54, N-tert-butyl-5-(3-(4-cyclopropylpyrimidin-2-yl)-1H-indol-5-yl)-1,3,4-oxadiazol-2-amine 2,2,2-trifluoroacetate], for which the IC50 in experiment [1] stood at 2.4 nM; in experiment [3] it was 1.58 nM.
As for `CC(C)Nc1nnc(-c2ccc3[nH]cc(-c4nc(C(=O)O)cc(C5CC5)n4)c3c2)o1` [Example 47, 6-cyclopropyl-2-(5-(5-(isopropylamino)-1,3,4-oxadiazol-2-yl)-1H-indol-3-yl)pyrimidine-4-carboxylic acid], the IC50 in experiment [1] (Pim-2 enzyme assay) stood at 1.16 nM; in experiment [3] it was 20.1 nM.
